Results as given in patent US12552796B2, “EED inhibitor, and preparation method therefor and use thereof” (SHANGHAITECH UNIVERSITY, priority 2019, dated 2026).

Legend:
[1] = system: cellular H3K27 methylation; assay: Cellular H3K27 methylation assay (Western blot of H3K27me3 in HeLa cells); format: cell-based; conditions: Homo sapiens, 72 h; HeLa cells, 3 days, H3K27me3 level by Western blot; read-out: PD IC50
[2] = system: WSU-DLCL2 cells; assay: Cell proliferation assay, WSU-DLCL2; format: cell-based; conditions: Homo sapiens, WSUDLCL2; WSU-DLCL2 cells, cultured to the 9th day; read-out: Anti-proliferation IC50
Procedure: (§1) Human B-cell non-Hodgkin's lymphoma cells WSU-DLCL2, Karpas422 and Pfeiffer were cultured in cell culture flasks in a sterile incubator with 95% relative humidity and 5% CO2 at 37° C. The medium was RPMI-1640 (Gibco, product No. 31800022) containing 15% fetal bovine serum (FBS, Gibco, product No. 10099141) and 0.1% penicillin/streptomycin solution (P/S). In order to assay the effects of compounds on cell proliferation, cells in exponential growth phase were seeded into a 12-well plate (Nunc, product No. 150628) with 1 mL of medium per well, wherein WSU-DLCL2 and Karpas422 were seeded at a density of 1×10^5 cells/well, and Pfeiffer was seeded at a density of 2×10^5 cells/well. At the same time, different concentrations of compounds were added to the wells that had seeded with cells (6 concentrations were set for each compound at 3-fold serial dilution), and the final concentration of DMSO was 0.1%. After that, the number of viable cells was determined by Vi-CELL (Beckman Coulter) for WSU-DLCL2 and Pfeiffer every 3 days, and for Karpas422 on days 4, 7, and 11, respectively. The cells counted each time were seeded into a new 12-well plate at the same density, and supplemented with fresh medium to 1 mL. Different concentrations of compounds were added at the same time. WSU-DLCL2 and Pfeiffer were cultured to the 9th day, and Karpas422 was cultured to the 14th day. Cell data were collected uniformly, and analyzed with GraphPad prisim5. Dose curves were fitted, and IC50 values of the assay compounds were obtained.

[3] = system: Karpas422 cells; assay: Cell proliferation assay, Karpas422; format: cell-based; conditions: Homo sapiens, KARPAS-422; Karpas422 cells, cultured to the 14th day; read-out: Anti-proliferation IC50
Procedure: as §1

[4] = system: Pfeiffer cells; assay: Cell proliferation assay, Pfeiffer; format: cell-based; conditions: Homo sapiens, cultured to the 9th day, read-out: Anti-proliferation IC50
Procedure: as §1

[5] = Pharmacokinetic study in rats; format: in vivo, SD rats; conditions: rat; for AUC(0-inf) / Cmax / Tmax / clearance / half-life / MRT inf: male, SD, plasma; for MRT inf: read-out: MRT0-∞
Procedure: Six SPF SD rats, male, weighing 180-220 g, were randomly divided into 2 groups with 3 rats in each group. The compounds of the present disclosure were administered by oral gavage (PO) and intravenous injection (IV), respectively, and the assay compounds were formulated with a vehicle (5% DMSO+10% Solutol+85% pH 4.65 Acetate buffer).
Dosage: 1 mg/kg for intravenous injection and 2 mg/kg for oral administration.
(§2) Dosing volume: 5 mL/kg for intravenous injection and 10 mL/kg for oral administration.
The oral administration group was fasted overnight (10-14 h) before the assay, and drank water freely. After 4 hours of administration, they were fed uniformly. They were weighed before administration, and the dosage was calculated according to the body weight.
Intravenous administration: 0.083, 0.25, 0.5, 1, 2, 4, 6, 8, 10 and 24 h after administration;
Oral gavage administration: 0.25, 0.5, 1, 2, 4, 6, 8, 10, 12 and 24 h after administration;
Blood was collected from the jugular vein of rats at the above set time points, about 0.2 mL each time. The blood was anticoagulated with heparin sodium, placed on ice after collection, and centrifuged within 1 hour to separate the plasma (centrifugation conditions: 6800 g, 6 minutes, 2-8° C.). Plasma samples were stored in a −80° C. freezer prior to analysis.
The concentration of each compound in rat plasma was determined by LC/MS/MS method.
(§3) Through the plasma drug concentration data at different time points, pharmacokinetic parameters were calculated using Phoenix WinNonlin 7.0, thereby providing parameters such as AUC0-t, AUC0-∞, MRT0-∞, Cmax, Tmax, and T1/2 and mean and standard deviation thereof.

[6] = Pharmacokinetic study in canine; format: in vivo, Beagle dogs; conditions: Beagle dog; for AUC(0-inf) / Cmax / Tmax / clearance / half-life / MRT inf: male, plasma; for MRT inf: read-out: MRT0-∞
Procedure: Six ordinary Beagle dogs, male, weighing 10-12 kg, were randomly divided into 2 groups with 3 dogs in each group. The compounds of the present disclosure were administered by oral gavage (PO) and intravenous injection (IV), respectively, and the assay compounds were formulated with the corresponding vehicles.
Dosage: 1 mg/kg for intravenous injection and 5 mg/kg for oral administration.
as §2
The oral administration group was fasted overnight (10-14 h) before the assay, and drank water freely. After 4 hours of administration, they were fed uniformly. They were weighed before administration, and the dosage was calculated according to the body weight. 2. Blood collection time point and sample processing:
Intravenous administration: 0.083, 0.25, 0.5, 1, 2, 4, 8, 12 and 24 h after administration;
Oral gavage administration: 0.25, 0.5, 1, 2, 4, 6, 8, 12 and 24 h after administration;
Blood was collected from the veins of extremities, about 0.5-1 mL each time. The blood was anticoagulated with heparin sodium, placed on ice after collection, and centrifuged within 1 hour to separate the plasma (centrifugation conditions: 6800 g, 6 minutes, 2-8° C.). Plasma samples were stored in a −80° C. freezer prior to analysis.
The concentration of each compound in canine plasma was determined by LC/MS/MS method.
as §3

[7] = system: Karpas 422 human B-cell lymphoma cells; assay: Mouse Karpas422 CDX model, tumor growth; format: in vivo, balb/c nude mice; conditions: Karpas422 CDX mice; for tumor growth inhibition (TGI %), Day 11 after administration / tumor growth inhibition (TGI %), Day 21 after administration: intragastric; for effect on tumor growth (FIG. 1): different dosages
Procedure: Female balb/c nude mice aged 6-8 weeks were selected and housed under SPF conditions (i.e., 20-22° C.; 40-70% relative humidity) in individual ventilated cages at constant temperature and humidity. There were 5 or fewer animals in each cage. Animals had access to dry pelleted food sterilized by irradiation and sterile drinking water. Karpas 422 human B-cell lymphoma cells were cultured in RPMI-1640 (Gibco, product No. 31800022) containing 15% fetal bovine serum (FBS, Gibco, product No. 10099141) and 0.1% penicillin/streptomycin solution (P/S). The cells were cultured in a sterile incubator at a temperature of 37° C., a relative humidity of 95%, and 5% CO2. Karpas 422 cells cultured in vitro were maintained at a concentration between 0.5-2×10^6 cells/mL cells in suspension culture and passaged at a 1:3 dilution every 2-4 days. To establish the xenograft model, cells were collected, resuspended in PBS, mixed 1:1 by volume with Matrigel (BD) at a concentration of 5×10^7 cells/mL, and then injected subcutaneously into the right side of balb/c nude mice (Vital River) with 5×10^6 cells per animal. When tumors grew to about 150 mm^3, mice were divided into groups with 6 mice in each group. The mice were administered intragastrically, and the tumor size and mouse body weight were measured twice a week. The two largest diameters of the transplanted tumor, width (W) and length (L), were manually measured with a vernier caliper, and the tumor volume was estimated using the formula: 0.5×L×W^2. After the assay, the mice were euthanized.
The assay compounds were prepared as a suspension in pure water containing 0.5% HPMC+0.5% Tween 80 as a solvent. The dosing volume was 10 mL/kg.
In this study, changes in mouse tumor volume and relative changes in mouse body weight were assayed, and the results were shown in FIGS. 1 and 2.

Row | Structure (SMILES) | IC50 [1] | IC50 [2] | IC50 [3] | IC50 [4] | AUC(0-inf) ([5]; IV, 1 mg/kg) | Cmax ([5]; IV, 1 mg/kg) | Tmax ([5]; IV, 1 mg/kg) | clearance ([5]; IV, 1 mg/kg) | half-life ([5]; IV, 1 mg/kg) | MRT inf ([5]; IV, 1 mg/kg) | AUC(0-inf) ([5]; PO, 2 mg/kg) | Cmax ([5]; PO, 2 mg/kg) | Tmax ([5]; PO, 2 mg/kg) | half-life ([5]; PO, 2 mg/kg) | MRT inf ([5]; PO, 2 mg/kg) | F ([5]; PO, 2 mg/kg) | F ([6]; PO, 5 mg/kg) | AUC(0-inf) ([6]; IV, 1 mg/kg) | Cmax ([6]; IV, 1 mg/kg) | Tmax ([6]; IV, 1 mg/kg) | other results
1 | Fc1ccc2c(c1CNc1ncc(OC3CCOCC3)c3nncn13)CCO2 [HJM-016] | 34.7 nM | 86.4 nM | 74.9 nM | 55.7 nM | 2060 ng·h/mL | 932 ng/mL | 0.08 h | 8.24 mL/min/kg | 2.33 h | 2.94 h | 3900 ng·h/mL | 482 ng/mL | 4 h | 2.8 h | 5.58 h | 98.86% | 62.50% | 8840 ng·h/mL | 1220 ng/mL | 0.08 h | clearance ([6]; IV, 1 mg/kg): 1.92 mL/min/kg; half-life ([6]; IV, 1 mg/kg): 5.87 h; MRT inf ([6]; IV, 1 mg/kg): 8.39 h; AUC(0-inf) ([6]; PO, 5 mg/kg): 27200 ng·h/mL; Cmax ([6]; PO, 5 mg/kg): 2900 ng/mL; Tmax ([6]; PO, 5 mg/kg): 2 h; half-life ([6]; PO, 5 mg/kg): 5.18 h; MRT inf ([6]; PO, 5 mg/kg): 7.97 h; tumor growth inhibition (TGI %), Day 11 after administration ([7]; 30 mg/kg): 8.5%; tumor growth inhibition (TGI %), Day 21 after administration ([7]; 30 mg/kg): 56.1%; tumor growth inhibition (TGI %), Day 11 after administration ([7]; 100 mg/kg): 52.3%; tumor growth inhibition (TGI %), Day 21 after administration ([7]; 100 mg/kg): 105.39%; effect on tumor growth (FIG. 1) [7]: complete tumor disappearance
2 | CN(C(=O)C1CC1)c1cnc(NCc2c(F)ccc3c2CCO3)n2cnnc12 [HJM-045] | 13 nM | 9.2 nM | 13.5 nM | 10.5 nM | 639 ng·h/mL | 794 ng/mL | 0.08 h | 26.4 mL/min/kg | 1.17 h | 1.06 h | 628 ng·h/mL | 119 ng/mL | 2.83 h | 1.46 h | 3.51 h | 48.40% | 90.95% | 4500 ng·h/mL | 1150 ng/mL | 0.08 h | clearance ([6]; IV, 1 mg/kg): 3.7 mL/min/kg; half-life ([6]; IV, 1 mg/kg): 4.13 h; MRT inf ([6]; IV, 1 mg/kg): 5.35 h; AUC(0-inf) ([6]; PO, 5 mg/kg): 20700 ng·h/mL; Cmax ([6]; PO, 5 mg/kg): 3700 ng/mL; Tmax ([6]; PO, 5 mg/kg): 0.5 h; half-life ([6]; PO, 5 mg/kg): 4.29 h; MRT inf ([6]; PO, 5 mg/kg): 5.75 h; tumor growth inhibition (TGI %), Day 11 after administration ([7]; 30 mg/kg): 0.25%; tumor growth inhibition (TGI %), Day 21 after administration ([7]; 30 mg/kg): 60.06%; tumor growth inhibition (TGI %), Day 11 after administration ([7]; 100 mg/kg): 10.7%; tumor growth inhibition (TGI %), Day 21 after administration ([7]; 100 mg/kg): 81.43%; effect on tumor growth (FIG. 1) [7]: complete tumor disappearance
3 | Fc1ccc2c(c1CNc1ncc(OCC3COC3)c3nncn13)CCO2 [HJM-104] | 52.7 nM | 29.6 nM | 102 nM | 81.6 nM | 1980 ng·h/mL | 1360 ng/mL | 0.08 h | 8.47 mL/min/kg | 2.7 h | 2.37 h | 3470 ng·h/mL | 586 ng/mL | 3.33 h | 2.21 h | 4.43 h | 89.41% | 102.43% | 3230 ng·h/mL | 864 ng/mL | 0.08 h | clearance ([6]; IV, 1 mg/kg): 5.9 mL/min/kg; half-life ([6]; IV, 1 mg/kg): 1.67 h; MRT inf ([6]; IV, 1 mg/kg): 2.86 h; AUC(0-inf) ([6]; PO, 5 mg/kg): 16500 ng·h/mL; Cmax ([6]; PO, 5 mg/kg): 3380 ng/mL; Tmax ([6]; PO, 5 mg/kg): 1 h; half-life ([6]; PO, 5 mg/kg): 2.09 h; MRT inf ([6]; PO, 5 mg/kg): 3.53 h; tumor growth inhibition (TGI %), Day 11 after administration ([7]; 30 mg/kg): 39.4%; tumor growth inhibition (TGI %), Day 21 after administration ([7]; 30 mg/kg): 93.29%; tumor growth inhibition (TGI %), Day 11 after administration ([7]; 100 mg/kg): 88.9%; tumor growth inhibition (TGI %), Day 21 after administration ([7]; 100 mg/kg): 111.9%; effect on tumor growth (FIG. 1) [7]: complete tumor disappearance
